Source: ChEMBL document CHEMBL1147922, “Tetrahydroindazole inhibitors of bacterial type II topoisomerases. Part 2: SAR development and potency against multidrug-resistant strains” (Bioorg Med Chem Lett, 2007)
In brackets after ≈: the same amount, converted by molar mass.

How the values were obtained:
[1] = test system: Streptococcus pneumoniae; assay: Antibacterial activity against Streptococcus pneumoniae ATCC 49619; type: functional
[2] = test system: Staphylococcus aureus; assay: Antibacterial activity against ciprofloxacin resistant methicillin resistant Staphylococcus aureus OC5273; type: functional
[3] = test system: Staphylococcus aureus; assay: Antibacterial activity against ciprofloxacin resistant methicillin resistant Staphylococcus aureus OC4222; type: functional
[4] = test system: Staphylococcus aureus; assay: Antibacterial activity against ciprofloxacin resistant methicillin resistant Staphylococcus aureus OC4159; type: functional
[5] = Inhibition of bacterial DNA gyrase
[6] = test system: Staphylococcus aureus; assay: Antibacterial activity against quinolone susceptible methicillin resistant Staphylococcus aureus OC2878; type: functional
[7] = test system: Staphylococcus aureus; assay: Antibacterial activity against ciprofloxacin resistant methicillin resistant Staphylococcus aureus OC3946; type: functional
[8] = test system: Staphylococcus aureus; assay: Antibacterial activity against Staphylococcus aureus ATCC 13709; type: functional
[9] = Inhibition of bacterial DNA topoisomerase 4
[10] = test system: Escherichia coli; assay: Antibacterial activity against Escherichia coli KL16; type: functional

| SMILES | MIC [1] [µg/mL] | MIC [2] [µg/mL] | MIC [3] [µg/mL] | MIC [4] [µg/mL] | IC50 [5] [µg/mL] | MIC [6] [µg/mL] | MIC [7] [µg/mL] | MIC [8] [µg/mL] | IC50 [9] [µg/mL] | MIC [10] [µg/mL] |
| --- | --- | --- | --- | --- | --- | --- | --- | --- | --- | --- |
| COc1ccc2nccc(-n3cc4c(n3)CCC(NC(=O)c3ccc5c(c3)NC(=O)CS5)C4)c2c1 (stereo not given) | 2 (≈ 4.12 µM) | 0.25 (≈ 0.515 µM) | 0.062 (≈ 0.128 µM) | 0.031 (≈ 0.0638 µM) | 0.12 (≈ 0.247 µM) | 0.125 (≈ 0.257 µM) | 0.015 (≈ 0.0309 µM) | 0.25 (≈ 0.515 µM) | 0.125 (≈ 0.257 µM) | 4 (≈ 8.24 µM) |
| COc1ccc2nccc(-n3cc4c(n3)CCC(NC(=O)c3ccc5c(c3)NC(=O)CS5)C4)c2n1 (stereo not given) | 4 (≈ 8.22 µM) | 0.062 (≈ 0.127 µM) | 0.5 (≈ 1.03 µM) | 0.5 (≈ 1.03 µM) | 0.25 (≈ 0.514 µM) | 0.031 (≈ 0.0637 µM) | 0.007 (≈ 0.0144 µM) | 0.06 (≈ 0.123 µM) | 0.25 (≈ 0.514 µM) | > 128 |
| O=C1CSc2ccc(C(=O)NC3CCc4nn(-c5cccc6cccnc56)cc4C3)cc2N1 (stereo not given) | 4 (≈ 8.78 µM) | 0.5 (≈ 1.1 µM) | 4 (≈ 8.78 µM) | 4 (≈ 8.78 µM) | 2 (≈ 4.39 µM) | 0.25 (≈ 0.549 µM) | 0.125 (≈ 0.274 µM) | 0.25 (≈ 0.549 µM) | 0.125 (≈ 0.274 µM) | 16 (≈ 35.1 µM) |
| COc1ccc2nccc(-n3cc4c(n3)CCC(NCc3ccc5c(c3)OCCO5)C4)c2c1 (stereo not given) | 1 (≈ 2.26 µM) | 1 (≈ 2.26 µM) | 16 (≈ 36.2 µM) | 16 (≈ 36.2 µM) | 2 (≈ 4.52 µM) | 0.5 (≈ 1.13 µM) | 0.5 (≈ 1.13 µM) | 0.5 (≈ 1.13 µM) | 0.06 (≈ 0.136 µM) | 128 (≈ 289 µM) |
